Laboratory results reported in US8466171B2, “Fused heterocyclic compounds useful as modulators of nuclear hormone receptor function” (Bristol-Myers Squibb Company, priority 2007, dated 2013).
Residue numbers refer to the chain shown, from its start.

Legend:
wild type AR = biological target: T1, wild type AR (Homo sapiens, UniProt P10275); test: AR Binding Assay (whole cell, MDA-MB-453, competition with [3H]-DHT); settings: MDA-MB-453 cells, competition with 2 nM [3H]-DHT, Cheng-Prusoff
T1 sequence (P10275 1-920 Q868H): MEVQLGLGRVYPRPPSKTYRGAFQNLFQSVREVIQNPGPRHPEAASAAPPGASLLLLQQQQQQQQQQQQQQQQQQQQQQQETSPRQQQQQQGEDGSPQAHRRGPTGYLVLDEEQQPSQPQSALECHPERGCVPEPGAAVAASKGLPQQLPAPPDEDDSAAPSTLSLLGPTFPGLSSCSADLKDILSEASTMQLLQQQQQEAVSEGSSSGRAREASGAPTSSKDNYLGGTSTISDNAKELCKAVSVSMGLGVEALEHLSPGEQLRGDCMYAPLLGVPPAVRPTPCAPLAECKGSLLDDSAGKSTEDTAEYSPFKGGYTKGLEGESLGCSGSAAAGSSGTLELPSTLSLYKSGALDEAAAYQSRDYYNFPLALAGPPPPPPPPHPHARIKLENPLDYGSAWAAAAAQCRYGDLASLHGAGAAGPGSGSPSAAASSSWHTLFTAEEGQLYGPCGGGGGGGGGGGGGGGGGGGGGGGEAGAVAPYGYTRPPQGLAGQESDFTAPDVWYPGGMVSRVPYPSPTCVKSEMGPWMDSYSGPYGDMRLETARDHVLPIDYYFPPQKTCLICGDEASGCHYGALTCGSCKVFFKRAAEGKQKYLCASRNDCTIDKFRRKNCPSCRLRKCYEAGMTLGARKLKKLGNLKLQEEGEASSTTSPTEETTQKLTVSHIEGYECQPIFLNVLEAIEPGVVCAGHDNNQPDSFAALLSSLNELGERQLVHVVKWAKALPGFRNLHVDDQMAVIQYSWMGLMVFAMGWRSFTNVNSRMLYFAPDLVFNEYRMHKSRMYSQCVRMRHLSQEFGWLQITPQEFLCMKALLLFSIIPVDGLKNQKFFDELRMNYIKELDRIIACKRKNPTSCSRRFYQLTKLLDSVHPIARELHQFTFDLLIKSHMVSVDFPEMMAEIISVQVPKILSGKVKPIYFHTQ
Experimental: For the whole cell binding assay, human breast adenocarcinoma MDA-MB-453 cells (American Type Culture Collection, Rockville, Md., ATCC #: HTB-131), expressing a functional endogenous wild type AR, are grown to near confluency in T-225 tissue culture flasks containing Dulbecco's Modified Eagle Medium (DMEM) (Mediatech CAT #45000-668) supplemented with 10% fetal bovine serum (FBS) (Invitrogen/GIBCO Life Science). In order to remove any endogenous ligand that might be complexed with the receptor in the cells, the tissue culture media is removed and the cells are incubated overnight at 37° C. in serum-free DMEM. The next day, cells are rinsed with magnesium and calcium free Phosphate Buffered Saline (PBS) (Invitrogen/GIBCO Life Science), harvested using Cell Stripper Buffer (Mediatech) and re-suspended in serum-free DMEM to achieve a final assay concentration of 4×10^5 cells/well of a 96-well assay plate. […] After the remaining media is removed, cells are washed three times with PBS and harvested onto UniFilter GF/B plates (PerkinElmer).
Two replicates are used for each sample. After 90 minutes at room temperature, cells are harvested by filtering through a GF/B filter plate (PerkinElmer) followed by washing with ice-cold 1×PBS (without calcium and magnesium) to remove unbound label. […] After correcting for non-specific binding, IC50 values are determined. The IC50 value is defined as the concentration of competing ligand needed to reduce specific binding by 50%. […] The Ki values are determined by application of the Cheng-Prusoff equation to the IC50 values where: […]
See e.g., D. Rodbard, Mathematics and Statistics of Ligand Assays: An Illustrated Guide: In: J. Langon and J. J. Clapp, eds., Ligand Assay, Masson Publishing U.S.A., Inc., New York, pp. 45-99 (1981).

androgen receptor (AR) = biological target: T2, androgen receptor (AR) (Homo sapiens, UniProt P10275); test: MDA-MB-453 Androgen Receptor Transactivation Assay; type: cell-based; settings: MDA-MB-453 cells, PSA-Luc reporter, 3 nM DHT, 48 hour incubation
T2 sequence (P10275 1-920): T1 sequence (P10275 1-920 Q868H) with H868Q
Excerpt: Compounds can be tested in a cell based transactivation assay used to measure the antagonism of androgen receptor (AR) transcriptional activity. […] The human breast adenocarcinoma MDA-MB-453 cell line (American Type Culture Collection, Rockville, Md., ATCC#: HTB-131), expressing a functional endogenous wild type AR, was transiently transfected with a reporter plasmid and tested for AR dependent transactivation activity in the absence or presence of test compounds. The pGL3 PSA-Luc reporter plasmid is comprised of the cDNA for the firefly luciferase gene and the upstream promoter sequences containing the androgen response elements (AREs) of the prostate specific antigen (PSA). This plasmid functions as a reporter for the transcription-modulating activity of the AR. In order to detect antagonists, the transactivation assay is conducted in the presence of constant concentration of the natural AR hormone (DHT) to induce a defined reporter signal. Addition of increasing concentrations of the suspected antagonist will decrease the reporter signal (luciferase activity).
MDA-MB-453 and 22 RV1 cells were maintained in DMEM (Cellgro, Cat. #10-014-CM) or RPMI 1640 (Gibco Cat. #11875-085) respectively and supplemented with 10% FBS (Invitrogen/GIBCO Life Science). Cells were bulk transfected in flasks with 1.3 ug/ml pGL3 PSA-Luc plasmid by using the Lipofectamine 2000 Reagent (Invitrogen, Cat. #11668-019) and serum-free Opti-MEM I media (Invitrogen, Cat#31985-070) according to the manufacturer's optimized conditions. Transfection was conducted at 37° C. with 5% CO2 for 16-18 hours. Following transfection, cells are washed, treated with trypsin, counted, and seeded in a 96-well plate at 30,000 cells per well in DMEM containing 10% Charcoal/Dextran Treated Fetal Bovine Serum (Gibco Cat. #11054-020) for MDA-MB-453 cells or RPMI 1640 (Gibco Cat. #110835) containing 10% FBS (Invitrogen/GIBCO Life Science) for 22 RV1 cells.
Following transfection, cells were incubated in the absence (blank) or presence (control) of 3 nM DHT (Sigma, Cat. #A-8380) and in the presence or absence of the standard antiandrogen bicalutamide or test compounds ranging in concentrations from 10^−10 to 10^−5M. Duplicates were used for each sample. The compound dilutions were performed by the Tecan Genesis (Tecan, Triangle Park, N.C.). After a 48 hour incubation, luciferase activity was measured using the Steady-Glo Luciferase Assay System (Promega, Cat. #E2550) according to manufacturer's specifications and luminescence was measured on a Packard TopCount (PerkinElmer). For each luciferase sample reading, the percent control (in absence of compounds) was calculated as: % Control=100×[averagesample−averageblank]/[averagecontrol−averageblank] Data was plotted and the IC50 value was defined as the concentration of compound that inhibited 50% of the luciferase activity for the controls.

immature castrated rats [1] = settings: cited from earlier work; for EC50 (increase in organ weight): immature castrated rats, dosing for 3 days
immature castrated rats [2] = test: Immature Rat Prostate Weight (IRPW) Assay; type: in vivo; settings: TP versus free T
Excerpt: The activity of compounds of Formula (I) as AR antagonists can be investigated in an immature male rat model, as described in L. G. Hershberger et al., Proc. Soc.
Male sexual accessory organs, such as the prostate and seminal vesicles, play an important role in reproductive function. These glands are stimulated to grow and are maintained in size and secretory function by the continued presence of serum testosterone (T), which is the major serum androgen (>95%) produced by the Leydig cells in the testis under the control of the pituitary luteinizing hormone (LH) and follicle stimulating hormone (FSH). […] Adrenal androgens also contribute about 20% of total DHT in the rat prostate, compared to 40% of that in 65-year-old men. […] However, this is not a major pathway, since in both animals and humans, castration leads to almost complete involution of the prostate and seminal vesicles without concomitant adrenalectomy. […] […] […] Since the male sex organs are the tissues most responsive to modulation of the androgen activity, this model is used to determine the androgen dependent growth of the sex accessory organs in immature castrated rats.
Male immature rats (19-20 days old Sprague-Dawley, Harlan Sprague-Dawley) are castrated under metofane anesthesia. […] Experimental groups are as follows:
At the end of the 3-day treatment, the animals are sacrificed, and the ventral prostate weighed. […]

SMILES	Ki (wild type AR) [µM]	IC50 (androgen receptor (AR)) [µM]	serum concentrations of T and DHT relative to that of TP (immature castrated rats [1]; 2 hours after subcutaneous injection) [times]	EC50 (increase in organ weight) (immature castrated rats [1])	potency relative to free T (immature castrated rats [2])
N#Cc1ccc(N2C[C@H]3[C@H]([C@H]4O[C@@H]3C[C@H]4F)S2(=O)=O)cc1C(F)(F)F [Example 14, 4-((1S,2R,6R,7R,9R)-9-fluoro-3,3-dioxido-10-oxa-3-thia-4-azatricyclo[5.2.1.0^2,6]dec-4-yl)-2-(trifluoromethyl)benzonitrile]	0.011	0.144	–	–	–
COC(=O)N[C@H]1C[C@@H]2O[C@H]1[C@H]1CN(c3ccc(C#N)c(C(F)(F)F)c3)S(=O)(=O)[C@H]12 [Example 40i, methyl((1S,2R,6R,7S,8S)-4-(4-cyano-3-(trifluoromethyl)phenyl)-3,3-dioxido-10-oxa-3-thia-4-azatricyclo[5.2.1.0^2,6]dec-8-yl)carbamate]	0.046	0.977	–	–	–
COC(=O)N[C@@H]1C[C@H]2O[C@@H]1[C@H]1[C@@H]2CN(c2ccc(C#N)c(C(F)(F)F)c2)S1(=O)=O [Example 41i, methyl((1S,2R,6R,7R,9R)-4-(4-cyano-3-(trifluoromethyl)phenyl)-3,3-dioxido-10-oxa-3-thia-4-azatricyclo[5.2.1.0^2,6]dec-9-yl)carbamate]	0.354	8.25	–	–	–
C[C@]12CC[C@H]3[C@@H](CCC4=CC(=O)CC[C@@]43C)[C@@H]1CC[C@@H]2O [T, testosterone]	–	–	5	about 1 mg	–
CCC(=O)O[C@H]1CC[C@H]2[C@@H]3CCC4=CC(=O)CC[C@]4(C)[C@H]3CC[C@]12C [TP, testosterone propionate]	–	–	–	~0.03 mg	10-30 fold
